The values below come from ChEMBL document CHEMBL1201862, “PubChem BioAssay data set” (2004).

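Dose response: 5 concentrations. Exposure: 48 h. Format: 96-well plates. Endpoint: linear interpolation; highest concentration if not reached. GI50 = concentration required for 50% inhibition of growth.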 Active and inactive are the calls of the source. Rule as the data show it: active = GI50 up to about 1.1 µM and inactive = higher.

Some test systems named below: Malme-3M; SF-295; HCC 2998; OVCAR-5; OVCAR-8; RPMI-8226; HOP-92; HT-29; CAKI-1; UACC-62; TK-10; SK-MEL-2; SF-539; OVCAR-4; IGROV-1; CCRF-CEM; PC-3; MDA-MB-435; MCF7.
Holding throughout (assay): NCI-60 cell line screen, 48 h

For `CS(=O)(=O)OCCN1CCN(C(=O)c2ccc(Cl)c3c(Nc4ccc(S(=O)(=O)N=C(N)N)cc4)c4ccccc4nc23)CC1`, the GI50 in the experiment with Malme-3M, in the experiment with SF-295, with HCC 2998, in the experiment with OVCAR-5, in the experiment on OVCAR-8 and in the experiment on RPMI-8226 was > 100 µM (inactive) throughout. Moreover, the GI50 in the experiment on HOP-92, in the experiment with HT-29, in the experiment on CAKI-1, with UACC-62, with TK-10 and in the experiment on SK-MEL-2 was > 100 µM (inactive) throughout. Further, the GI50 in the experiment on SF-539, with OVCAR-4, with IGROV-1 and in the experiment with CCRF-CEM was > 100 µM (inactive) in each case.
Take `Clc1ccc(OCc2nnc(CCCCCCCCc3nnc(COc4ccc(Cl)cc4)o3)o2)cc1`: the GI50 with PC-3 is > 100 µM (inactive); with Malme-3M, 3.58 µM (inactive); in the experiment on SF-295 it was > 100 µM (inactive); in the experiment with MDA-MB-435, > 100 µM (inactive); in the experiment with HCC 2998 it was > 100 µM (inactive); in the experiment with OVCAR-5 it was > 100 µM (inactive). The GI50 is 28.2 µM (inactive) with MCF7; > 100 µM (inactive) in the experiment on RPMI-8226; 31.7 µM (inactive) in the experiment on HOP-92; > 100 µM (inactive) in the experiment on HT-29; 39.7 µM (inactive) in the experiment with CAKI-1; > 100 µM (inactive) in the experiment on UACC-62. In addition, the GI50 with TK-10, in the experiment with SK-MEL-2 and in the experiment with OVCAR-4 was > 100 µM (inactive) each time.
Consider `COC(=O)c1nc(N)nc(O)c1CCCCCc1c(O)nc(N)nc1C(=O)OC`, for which the GI50 in the experiment on Malme-3M, in the experiment on SF-295, with HCC 2998, in the experiment on OVCAR-5, in the experiment with OVCAR-8 and in the experiment with RPMI-8226 was > 50 µM (inactive) in each case. The GI50 in the experiment on HOP-92, in the experiment on HT-29, in the experiment with CAKI-1, in the experiment on UACC-62, with TK-10 and in the experiment with SK-MEL-2 was > 50 µM (inactive) each time. In addition, the GI50 in the experiment with SF-539, with OVCAR-4, in the experiment with IGROV-1 and in the experiment on CCRF-CEM was > 50 µM (inactive) throughout.
With `O=[N+]([O-])c1cccc(C(O)/C(=N/O)c2nc3ccc(Cl)cc3nc2O)c1` (stereo not given), the GI50 in the experiment with Malme-3M, in the experiment with SF-295, in the experiment with HCC 2998, in the experiment with OVCAR-5, with OVCAR-8 and in the experiment on RPMI-8226 was > 100 µM (inactive) throughout. Moreover, the GI50 in the experiment on HOP-92, with HT-29, with UACC-62, in the experiment on TK-10, in the experiment with SF-539 and in the experiment with OVCAR-4 was > 100 µM (inactive) each time. In addition, the GI50 in the experiment with IGROV-1 and with CCRF-CEM was > 100 µM (inactive) each time.
As to `Cc1cc2c(ccc3c(C)cc(=O)oc32)o1`, the GI50 with Malme-3M, with SF-295, in the experiment with HCC 2998, with OVCAR-5, in the experiment on OVCAR-8 and in the experiment with RPMI-8226 was > 100 µM (inactive) each time. In addition, the GI50 with HOP-92, in the experiment with HT-29, in the experiment on CAKI-1, with UACC-62, in the experiment with TK-10 and in the experiment with SK-MEL-2 was > 100 µM (inactive) throughout. The GI50 with SF-539, in the experiment with OVCAR-4, with IGROV-1 and in the experiment on CCRF-CEM was > 100 µM (inactive) throughout.
On to `COC(=O)/C(=N\O)C(C(=O)C=C(C)C)C(=O)C(=O)Nc1ccccc1C` (stereo not given), for which the GI50 in the experiment on Malme-3M, with SF-295, with HCC 2998, in the experiment on OVCAR-5, in the experiment with OVCAR-8 and with RPMI-8226 was > 100 µM (inactive) throughout. In addition, the GI50 in the experiment on HOP-92, with HT-29, with CAKI-1, with UACC-62, with TK-10 and with SK-MEL-2 was > 100 µM (inactive) in each case. Moreover, the GI50 in the experiment on SF-539, with OVCAR-4, in the experiment with IGROV-1 and in the experiment on CCRF-CEM was > 100 µM (inactive) throughout.
As for `O=C(CN1CCOCC1)Nc1ccc2c(c1)C1Oc3ccccc3CC1CO2` (stereo not given), the GI50 in the experiment with PC-3, in the experiment on Malme-3M, in the experiment with SF-295, in the experiment with MDA-MB-435, in the experiment with HCC 2998 and in the experiment on OVCAR-5 was > 100 µM (inactive) each time. Moreover, the GI50 in the experiment with MCF7, in the experiment on OVCAR-8, with RPMI-8226, in the experiment on HOP-92, in the experiment with HT-29 and in the experiment on CAKI-1 was > 100 µM (inactive) each time. In addition, the GI50 in the experiment with UACC-62, in the experiment on TK-10, in the experiment on SK-MEL-2, in the experiment on SF-539, with IGROV-1 and in the experiment on CCRF-CEM was > 100 µM (inactive) throughout.
As to `COc1cc(C(CC(OC)OC)=C(C#N)C#N)cc(OC)c1OC`, the GI50 was 26.1 µM (inactive) in the experiment with Malme-3M; 19.5 µM (inactive) with SF-295; 18.7 µM (inactive) in the experiment on HCC 2998; > 100 µM (inactive) in the experiment on OVCAR-5; 20 µM (inactive) in the experiment with OVCAR-8; 17.1 µM (inactive) in the experiment on HOP-92. Besides, the GI50 with HT-29 is 5.6 µM (inactive); in the experiment on CAKI-1, 34.3 µM (inactive); with UACC-62, 26.7 µM (inactive); in the experiment on TK-10, 58.3 µM (inactive); with SK-MEL-2, 21.9 µM (inactive); with SF-539, 13.7 µM (inactive). In addition, the GI50 in the experiment with IGROV-1 was 39.4 µM (inactive); in the experiment with CCRF-CEM, 5.36 µM (inactive).
In the case of `CCn1c2ccccc2c2ccc3c(c21)C(=O)C=CC3=O`, the GI50 with Malme-3M is 9.86 µM (inactive); with SF-295, 20.4 µM (inactive); in the experiment on HCC 2998 it was 20.9 µM (inactive); in the experiment with OVCAR-5, 21.5 µM (inactive); in the experiment with OVCAR-8, 13.7 µM (inactive); with RPMI-8226 it was 10.3 µM (inactive). Besides, the GI50 was 12.2 µM (inactive) in the experiment with HOP-92; 21 µM (inactive) with HT-29; 16.4 µM (inactive) in the experiment with TK-10; 21.1 µM (inactive) in the experiment with SK-MEL-2; 26.2 µM (inactive) in the experiment with SF-539; 4.06 µM (inactive) in the experiment with OVCAR-4. Moreover, the GI50 is 1.39 µM (inactive) with IGROV-1 and 0.375 µM (active) in the experiment on CCRF-CEM.
For `CCN(CC)C(=O)Cc1c(C(=O)N(CC)CC)c(=O)nc2sccn12`, the GI50 with Malme-3M, in the experiment on SF-295, in the experiment with HCC 2998, in the experiment on OVCAR-8, in the experiment on RPMI-8226 and in the experiment with HOP-92 was > 100 µM (inactive) throughout. Besides, the GI50 in the experiment with HT-29, in the experiment with UACC-62, in the experiment on TK-10, with SK-MEL-2, with SF-539 and with OVCAR-4 was > 100 µM (inactive) in each case. In addition, the GI50 with IGROV-1 and in the experiment on CCRF-CEM was > 100 µM (inactive) each time.
On to `NC1=NN(c2ccccc2)C(=O)C1C(=O)C(=O)Nc1ccc(Cl)c(Cl)c1` (stereo not given), for which the GI50 with Malme-3M, in the experiment on SF-295, with HCC 2998, in the experiment on OVCAR-5, with OVCAR-8 and with RPMI-8226 was > 100 µM (inactive) each time. For the same compound, the GI50 was > 100 µM (inactive) in the experiment on HOP-92; > 100 µM (inactive) in the experiment with HT-29; 55.3 µM (inactive) with CAKI-1; > 100 µM (inactive) in the experiment on UACC-62; > 100 µM (inactive) with TK-10; > 100 µM (inactive) in the experiment with SK-MEL-2. The GI50 was > 100 µM (inactive) in the experiment with SF-539, > 100 µM (inactive) in the experiment with OVCAR-4, > 100 µM (inactive) in the experiment with IGROV-1 and 96.4 µM (inactive) in the experiment with CCRF-CEM.
Turning to `O=C(Nc1ccccc1-c1nc2ccccc2[nH]c1=O)c1ccccc1`, the GI50 was 32.1 µM (inactive) in the experiment with Malme-3M; 20.9 µM (inactive) in the experiment with SF-295; 15.4 µM (inactive) in the experiment with HCC 2998; 63.4 µM (inactive) in the experiment with OVCAR-5; 22.9 µM (inactive) with OVCAR-8; 21.8 µM (inactive) in the experiment on RPMI-8226. Further, the GI50 with HOP-92 is 21.4 µM (inactive); in the experiment with HT-29 it was 37.3 µM (inactive); in the experiment with CAKI-1, 29.9 µM (inactive); in the experiment with UACC-62 it was 26.1 µM (inactive); in the experiment with TK-10, 17.1 µM (inactive); in the experiment on SK-MEL-2 it was 23.5 µM (inactive). The GI50 was 20.6 µM (inactive) in the experiment with SF-539, 19.9 µM (inactive) in the experiment with OVCAR-4, 26.4 µM (inactive) with IGROV-1 and > 100 µM (inactive) in the experiment on CCRF-CEM.
